Consider four molecules from US10493102B2, “Methods of inhibiting the virulence of a pathogen with an oxidized tannin to treat a gastrointestinal spasm” (priority 2012, dated 2019).

Molecules are shown by their SMILES.

For one data set, the system named is E. coli. Kind of data set: Stability of hydrogen peroxide (bound vs free) in aqueous solution challenged with E. coli. The data set is classed as physicochemical. The source says:
This method tests the stability of the hydrogen peroxide in the combination. The testing methods used follow the standard procedures set-forth by the Clinical and Laboratory Standards Institute (CLSI) and US Pharmacopeia. • i. E. coli was chosen as the bacteria to challenge the stability of the bound compositions and the free hydrogen peroxide. • ii. The hydrogen peroxide concentration was matched to the selected bacteria in order to form a useful curve representing hydrogen peroxide degradation over time for the samples. As such, the hydrogen peroxide was varied from 62.5 ppm to 500 ppm on a fixed E. coli concentration of 10^6 CFU/ml, and a concentration of 125 ppm was chosen as the initial hydrogen peroxide level used to challenge the E. coli over time. • iii. A ratio of 1:1 of the hydrogen peroxide to each of the model compounds and plant extracts was used to form each bound composition, such that 125 ppm of each plant extract was combined with the 125 ppm of the hydrogen peroxide, • iv. The free hydrogen peroxide was added at a concentration of 125 ppm as a control to show the relative stability of the hydrogen peroxide alone in the aqueous solution as compared to the bound compositions.
FIG. 2A compares stabilities of free hydrogen peroxide to hydrogen peroxide bound to each of: gallic acid (a model polyphenol building block), tannic acid (a model polyphenol), pomegranate husk extract, green tea extract, and Blessed thistle extract. […] In both FIGS. 2A and 2B, there are curves that cannot be identified well individually, as they are identical and overlapping. […]

Data set [1] is described as follows: Amount of hydrogen peroxide that remains bound to the polyphenol in dry form. It is filed as physicochemical. Conditions: dry form redissolved in water; WATERWORKS peroxide test strip. The source says: Art-recognized procedures, such as those set-forth at least in U.S. Pat. Nos. 3,860,694; 3,864,454; 4,171,280; and 4,966,762, were used as a guide for this study.
As discussed, one of skill will appreciate that hydrogen peroxide in a free form, for example, would otherwise quickly degrade. The polyphenols were provided from model compounds or plant extracts. A dry form of the compositions was made between (i) gallic acid (a model polyphenol building block from Sigma-Aldrich) and hydrogen peroxide; (ii) tannic acid (a model polyphenol component from Sigma-Aldrich) and hydrogen peroxide; (iii) pomegranate husk extract and hydrogen peroxide; and, (iv) green tea extract and hydrogen peroxide; using the procedures taught herein, including: • i. adding a solution of 35% hydrogen peroxide slowly into each of the gallic acid powder, tannic powder, pomegranate husk extract powder; or green tea extract powder. […]

Data set [2] has as its system IBS patients, abdominal pain. Particulars: other studies; cited from earlier work.

As to `OO` [H2O2, hydrogen peroxide], in the data set with E. coli (0 h (initial level), 1:1 extract:H2O2, 125 ppm each, E. coli 10^6 CFU/ml), the “hydrogen peroxide level, Hours 0” value was 125 ppm. In the data set on E. coli (4 h, 1:1 extract:H2O2, E. coli 10^6 CFU/ml), the “hydrogen peroxide level, Hours 4” value is recorded as 15 ppm. For the same molecule, the “hydrogen peroxide level, Hours 8” value with E. coli (8 h, 1:1 extract:H2O2, E. coli 10^6 CFU/ml) was 0 ppm. In the data set on E. coli (12 h, 1:1 extract:H2O2, E. coli 10^6 CFU/ml), the “hydrogen peroxide level, Hours 12” value was 0 ppm. Moreover, in the data set on E. coli (16 h, 1:1 extract:H2O2, E. coli 10^6 CFU/ml), the “hydrogen peroxide level, Hours 16” value came out at 0 ppm. Besides, the “hydrogen peroxide level, Hours 20” value in the data set with E. coli (20 h, 1:1 extract:H2O2, E. coli 10^6 CFU/ml) was 0 ppm. For the same molecule, in the data set on E. coli (24 h, 1:1 extract:H2O2, E. coli 10^6 CFU/ml), the “hydrogen peroxide level, Hours 24” value worked out at 0 ppm. Moreover, the “hydrogen peroxide level after degradation” value in the data set on E. coli (within about the first 8 hours) is on record as approximately 0.0 ppm.

Turning to `O=C(O)c1cc(O)c(O)c(O)c1` [gallic acid], in data set [1], the “hydrogen peroxide bound by total dry wt” value is given as “about 3.0%”.

As for `CN(C)C(=O)C(CCN1CCC(O)(c2ccc(Cl)cc2)CC1)(c1ccccc1)c1ccccc1` [loperamide], the “effect on abdominal pain symptoms compared with placebo” value in data set [2] is reported as “no different from placebo”.

Take `O=C(OC[C@H]1O[C@@H](OC(=O)c2cc(O)c(O)c(OC(=O)c3cc(O)c(O)c(O)c3)c2)[C@H](OC(=O)c2cc(O)c(O)c(OC(=O)c3cc(O)c(O)c(O)c3)c2)[C@@H](OC(=O)c2cc(O)c(O)c(OC(=O)c3cc(O)c(O)c(O)c3)c2)[C@@H]1OC(=O)c1cc(O)c(O)c(OC(=O)c2cc(O)c(O)c(O)c2)c1)c1cc(O)c(O)c(OC(=O)c2cc(O)c(O)c(O)c2)c1` [tannic acid]: the “hydrogen peroxide bound by total dry wt” value in data set [1] is “about 2.5%”.
